Ends that are not written are not given here.

The values that follow come from US8183211B2, “Pharmaceutical compositions for inhibiting intestinal permeability” (University of Maryland, Baltimore, priority 2000, dated 2012).

One data set has as its system BB/Wor rats. Kind of data set: BB/Wor diabetic rat model, progression to diabetes. In kind it is in vivo. Particulars: 10 μg/ml in drinking water. The procedure: Both groups were maintained on a standard diet of rat chow (Harlan Teklab Diet #7012). All food and water were previously autoclaved. Each day, daily water intake was measured and 100 ml of fresh water was given. The treated group received 10 μg/ml of the zonulin peptide antagonist (SEQ ID NO:15) supplemented in the drinking water. The rats were housed in hepa-filter cages.
Diabetes in the rats was diagnosed as follows: The rats were weighed twice a week. Blood glucose was determined weekly using the OneTouch® glucose monitoring system (Johnson & Johnson). Each week, reagent strips for urinalysis were used to monitor glucose (Diastix®) and ketones (Ketositx®) (Bayer). Rats with a blood glucose>250 mg/dl were fasted overnight, and blood glucose levels>200 mg/dl were considered diabetic.
Following clinical presentation of diabetes, the rats were sacrificed as follows: the rats were anesthesized using ketamine anesthesia and a midline incision was made allowing access to the heart. An 18 G needle was placed into the heart and death occurred by exsanguinations. Then, zonulin assays were conducted as described above. […] According to Biomedical Research Models, Inc., 80% of diabetes prone rats present with diabetes by age 80 days.

For a further data set, the system named is rabbit ileum. Description: Tissue resistance (Rt) of rabbit ileum mounted in Ussing chambers. In kind it is cell-based. The procedure: Next, rabbit ileum mounted in Ussing chambers as described above, were exposed to 100 μg of FZI/0 (SEQ ID NO:15), 100 μg of FZI/1 (SEQ ID NO:29), 1.0 μg of 6×His-ZOT (obtained as described in Example 1 of U.S. patent application Ser. No. 09/127,815, filed Aug. 3, 1998), 1.0 μg of zonulini (obtained as described in Example 3 of U.S. patent application Ser. No. 09/127,815, filed Aug. 3, 1998), or 1.0 μg of zonulinh (obtained as described in Example 3of U.S. patent application Ser. No. 09/127,815, filed Aug. 3, 1998), alone; or pre-exposed for 20 min to 100 μg of FZI/0 or FZI/1, at which time 1.0 μg of 6×His-ZOT, 1.0 μg of zonulini, or 1.0 μg of zonulinh, was added. ΔRt was then calculated as described above.

In another data set the test system is rabbit ileal mucosa. Conditions: cited from earlier work.

“GGVLVQPG [FZI/0, synthetic octapeptide corresponding to amino acid residues 8-15 of human fetal zonulini]”: the “treated rats that did not develop diabetes” value in the data set with BB/Wor rats (endpoint age 80 days) is listed as 60%. In the data set with BB/Wor rats (n=5, control rats 80%), the “rats that developed diabetes by age 80 days” value is recorded as 40%. In the data set on rabbit ileum (100 μg peptide alone, rabbit ileum), the “change in Rt as compared to the negative control” value turned out to be 0.5%. In the data set with rabbit ileum (pre-treatment for 20 min with 100 μg peptide, then 1.0 μg 6×His-ZOT), the “decrease of the effect of ZOT on Rt” value worked out at 75%. Further, the “decrease of the effect of zonulinh on Rt” value in the data set on rabbit ileum (pre-treatment for 20 min with 100 μg peptide, then 1.0 μg zonulinh) is 100%. In addition, in the data set with rabbit ileum (pre-treatment for 20 min with 100 μg peptide, then 1.0 μg zonulini), the “decrease of the effect of zonulini on Rt” value is recorded as 97%.

For “ZOT: zonula occludens toxin elaborated by V. cholerae”, in the data set with rabbit ileal mucosa, the “Na+-glucose coupled active transport” value is recorded as “does not affect”, the cytotoxicity entry is reported as “not cytotoxic” and the transepithelial resistance result was “fails to completely abolish”.

With “FZI/1: second synthetic peptide: Gly in position 8, Val in position 12, Gln in position 13 changed to Val, Gly, Arg (VGVLGRPG; tight junction antagonist peptide) [reference compound]”, in the data set on rabbit ileum (pre-exposure for 20 min to 100 μg peptide), the “inhibitory effect on ZOT, zonulini and zonulinh action on Rt” value was “completely ablated”.
